US20240409536A1, “COMPOUNDS AND METHODS FOR MODULATING SPLICING” (REMIX THERAPEUTICS INC., priority 2021, published 2024)
Structures can show the parent of a compound that is named as a salt.

How the values were obtained:
HTT mRNA = experiment: Splicing RT-qPCR assay, HTT canonical (CJ) and alternative (AJ) junction mRNA; assay type: cell-based; settings: Homo sapiens, A673 or K562 cells, 24 hours; for IC50: decrease in canonical junction mRNA; for AC50: increase in alternative junction mRNA
In short: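 Canonical and alternative junction mRNAs measured by cell-lysate one-step RT-qPCR, normalized to PPIA in A673 or GAPDH/GUSB in K562. Cells received compound for 24 h at 37 °C, 5% CO2, 11-point 3-fold series from 10 uM final top dose, DMSO at most 0.25%.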

K562 cells = experiment: Cell Titer Glo 2.0 cell viability assay in K562 cells; settings: 72 hours
SMN2 mRNA = experiment: Gene panel canonical junction qPCR assay, SMN2 CJ mRNA decrease; assay type: cell-based, human; settings: Homo sapiens, canonical junction qPCR, read-out: SMN2 IC50 (decrease in CJ mRNA levels)
In short: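 IC50 values describe loss of canonical-junction transcript, fitted by 4-parameter logistic to percent response derived from fixed ΔCt windows. Read-out: RT-qPCR on lysates of compound-treated K562 or A673 cells, probes overlapping the exon junction, ΔΔCt versus housekeeping gene and DMSO control.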

Row | IC50 (HTT mRNA) | IC50 (SMN2 mRNA) | SMILES | AC50 (HTT mRNA) | Viability (K562 cells)
1 | 100 to 1000 nM | < 100 nM | Cc1cn2cc(NC(=O)c3ccc(N4CCC5(CCN5)CC4)c4nccnc34)cc(F)c2n1 [Compound 189, 8-{1,7-diazaspiro[3.5]nonan-7-yl}-N-{8-fluoro-2-methylimidazo[1,2-a]pyridin-6-yl}quinoxaline-5-carboxamide] | 100 to 1000 nM | B (B represents 100-1000 nM)
2 | 1000 to 10000 nM | < 100 nM | CNC1CCN(c2ccc(C(=O)Nc3cc(F)c4nc(C)cn4c3)c3nccnc23)C1 (stereo not drawn) [Compound 190, N-{8-fluoro-2-methylimidazo[1,2-a]pyridin-6-yl}-8-[3-(methylamino)pyrrolidin-1-yl]quinoxaline-5-carboxamide] | 1000 to 10000 nM | A (A represents <100 nM)
3 | > 10000 nM | > 10000 nM | Cc1cn2cc(NC(=O)c3ccc(N4CCNCC4)c4nnccc34)cc(F)c2n1 [Compound 166, N-(8-fluoro-2-methylimidazo[1,2-a]pyridin-6-yl)-8-(piperazin-1-yl)cinnoline-5-carboxamide 2,2,2-trifluoroacetate] | > 10000 nM | D (D represents greater than 10 μM in K562 cells)
4 | 1000 to 10000 nM | 100 to 1000 nM | CNCC1CCN(c2ccc(C(=O)Nc3cc(F)c4nc(C)cn4c3)c3nccnc23)CC1 [Compound 192, N-{8-fluoro-2-methylimidazo[1,2-a]pyridin-6-yl}-8-{4-[(methylamino)methyl]piperidin-1-yl}quinoxaline-5-carboxamide trifluoroacetate] | 1000 to 10000 nM | C (C represents 1000-9999 nM)
5 | > 10000 nM | < 100 nM | Cc1cn2cc(NC(=O)c3ccc(N4CCNC5(CCOC5)C4)c4nccnc34)cc(F)c2n1 (stereo not drawn) [Compound 373] | > 10000 nM | B (B represents 100-1000 nM)
6 | 1000 to 10000 nM | < 100 nM | Cc1cn2cc(NC(=O)c3ccc(N4CCNC5(CC5)C4)c4ccnnc34)cc(F)c2n1 [Compound 105] | 1000 to 10000 nM | B (B represents 100-1000 nM)
7 | > 10000 nM | < 100 nM | Cc1cn2cc(NC(=O)c3ccc(N4C[C@@H](C)NC5(CC5)C4)c4nccnc34)cc(F)c2n1 [Compound 376] | > 10000 nM | B (B represents 100-1000 nM)
8 | 100 to 1000 nM | < 100 nM | Cc1cn2cc(NC(=O)c3ccc(C4CCNCC4)c4nccnc34)cc(F)c2n1 [Compound 371] | 100 to 1000 nM | A (A represents <100 nM)
9 | 1000 to 10000 nM | < 100 nM | Cc1cn2cc(NC(=O)c3ccc(N4CCNCC4)c4cccnc34)cc(F)c2n1 [Compound 165, N-{8-fluoro-2-methylimidazo[1,2-a]pyridin-6-yl}-5-(piperazin-1-yl)quinoline-8-carboxamide] | 100 to 1000 nM | A (A represents <100 nM)
10 | > 10000 nM | < 100 nM | CN[C@@H]1CCN(c2ccc(C(=O)Nc3cc(F)c4nc(C)cn4c3)c3nccnc23)C1 (single isomer, unassigned) [Compound 193, N-{8-fluoro-2-methylimidazo[1,2-a]pyridin-6-yl}-8-[3-(methylamino)pyrrolidin-1-yl]quinoxaline-5-carboxamide] | > 10000 nM | A (A represents <100 nM)

More lines, now with the values behind:

Row | SMILES | IC50 (HTT mRNA) | IC50 (SMN2 mRNA) | AC50 (HTT mRNA) | Viability (K562 cells)
11 | COc1nc(NC(=O)c2ccc(N3CCNCC3)c3ccnnc23)cn2cc(C)nc12 [Compound 179, N-{8-methoxy-2-methylimidazo[1,2-a]pyrazin-6-yl}-5-(piperazin-1-yl)cinnoline-8-carboxamide] | 1000 to 10000 nM | < 100 nM | 1000 to 10000 nM | B (B represents 100-1000 nM)
12 | Cc1ccc2c(N3CCC(N(C)C)CC3)ccc(C(=O)Nc3cc(F)c4nc(C)cn4c3)c2n1 [Compound 215, 5-[4-(dimethylamino)piperidin-1-yl]-N-{8-fluoro-2-methylimidazo[1,2-a]pyridin-6-yl}-2-methylquinoline-8-carboxamide] | 100 to 1000 nM | < 100 nM | 1000 to 10000 nM | B (B represents 100-1000 nM)
13 | Cc1cnc2c(N3C[C@@H](C)N[C@@H](C)C3)ccc(C(=O)Nc3cc(F)c4nc(C)cn4c3)c2n1 [Compound 216, 8-((3R,5S)-3,5-dimethylpiperazin-1-yl)-N-{8-fluoro-2-methylimidazo[1,2-a]pyridin-6-yl}-3-methylquinoxaline-5-carboxamide] | 1000 to 10000 nM | < 100 nM | > 10000 nM | C (C represents 1000-9999 nM)
14 | Cc1cn2cc(NC(=O)c3ccc(N4CCN[C@H](C)C4)c4ccnnc34)cc(F)c2n1 [Compound 146] | 100 to 1000 nM | < 100 nM | 100 to 1000 nM | A (A represents <100 nM)
15 | Cc1cn2cc(NC(=O)c3ccc(N4CCNCC4)c4ccnnc34)cc(C(C)O)c2n1 (stereo not drawn) [Compound 182, N-[8-(1-hydroxyethyl)-2-methylimidazo[1,2-a]pyridin-6-yl]-5-(piperazin-1-yl)cinnoline-8-carboxamide trifluoroacetate] | > 10000 nM | 1000 to 10000 nM | > 10000 nM | D (D represents greater than 10 μM in K562 cells)
16 | Cc1cnc2c(N3CCC(N(C)C)CC3)ccc(C(=O)Nc3cc(F)c4nc(C)cn4c3)c2n1 [Compound 200, 8-[4-(dimethylamino)piperidin-1-yl]-N-{8-fluoro-2-methylimidazo[1,2-a]pyridin-6-yl}-3-methylquinoxaline-5-carboxamide] | 100 to 1000 nM | < 100 nM | 100 to 1000 nM | B (B represents 100-1000 nM)
17 | COc1cnc2c(N3CCC(N(C)C)CC3)ccc(C(=O)Nc3cc(F)c4nc(C)cn4c3)c2n1 [Compound 206, 8-[4-(dimethylamino)piperidin-1-yl]-N-{8-fluoro-2-methylimidazo[1,2-a]pyridin-6-yl}-3-methoxyquinoxaline-5-carboxamide; trifluoroacetic acid] | 100 to 1000 nM | < 100 nM | 100 to 1000 nM | B (B represents 100-1000 nM)
18 | Cc1cnc2c(C(=O)Nc3cc(F)c4nc(C)cn4c3)ccc(N3CCC(N(C)C)CC3)c2n1 [Compound 208, 8-[4-(dimethylamino)piperidin-1-yl]-N-{8-fluoro-2-methylimidazo[1,2-a]pyridin-6-yl}-2-methylquinoxaline-5-carboxamide; bis(trifluoroacetic acid)] | 1000 to 10000 nM | < 100 nM | 1000 to 10000 nM | A (A represents <100 nM)
19 | CC[C@H]1CN(c2ccc(C(=O)Nc3cc(F)c4nc(C)cn4c3)c3nnccc23)CCN1 [Compound 152] | 1000 to 10000 nM | < 100 nM | 1000 to 10000 nM | B (B represents 100-1000 nM)
20 | COc1ccc2c(N3CCNCC3)ccc(C(=O)Nc3cc(F)c4nc(C)cn4c3)c2n1 [Compound 169, N-{8-fluoro-2-methylimidazo[1,2-a]pyridin-6-yl}-2-methoxy-5-(piperazin-1-yl)quinoline-8-carboxamide] | 1000 to 10000 nM | < 100 nM | 1000 to 10000 nM | A (A represents <100 nM)
21 | Cc1cn2cc(NC(=O)c3ccc(N4CCN(C)[C@H](C)C4)c4ccnnc34)cc(F)c2n1 [Compound 149] | 1000 to 10000 nM | < 100 nM | 1000 to 10000 nM | B (B represents 100-1000 nM)
